What was measured:
[1] = target: T1, MAP kinase-activated protein kinase 5 (Homo sapiens) (UniProt Q8IW41); experiment: Inhibition of human full length PRAK expressed in baculovirus assessed as substrate phosphorylation using fluorescence-labelled peptides as substrate at 0.06 uM after 90 mins by microfluidic peptide phosphorylation assay
T1 sequence (whole entry): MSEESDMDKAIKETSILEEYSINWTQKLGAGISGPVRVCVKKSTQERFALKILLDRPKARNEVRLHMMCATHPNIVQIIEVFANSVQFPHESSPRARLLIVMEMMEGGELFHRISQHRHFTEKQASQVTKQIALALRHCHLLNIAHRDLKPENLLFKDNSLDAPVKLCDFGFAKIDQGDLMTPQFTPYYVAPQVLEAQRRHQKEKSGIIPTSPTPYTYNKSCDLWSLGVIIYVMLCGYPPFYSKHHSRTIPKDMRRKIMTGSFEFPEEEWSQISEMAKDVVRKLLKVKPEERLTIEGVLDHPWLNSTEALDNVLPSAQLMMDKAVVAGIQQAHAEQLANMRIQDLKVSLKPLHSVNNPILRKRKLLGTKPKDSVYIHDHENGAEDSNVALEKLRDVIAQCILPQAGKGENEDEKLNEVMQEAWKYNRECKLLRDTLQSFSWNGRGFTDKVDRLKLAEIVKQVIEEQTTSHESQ

[2] = target: Casein kinase I isoform alpha (Homo sapiens) (UniProt P48729); experiment: Inhibition of human full length CSNK1A1 expressed in baculovirus assessed as substrate phosphorylation using fluorescence-labelled peptides as substrate at 0.06 uM after 90 mins by microfluidic peptide phosphorylation assay
Chain of Casein kinase I isoform alpha (Homo sapiens) (P48729 2-337 limits assumed): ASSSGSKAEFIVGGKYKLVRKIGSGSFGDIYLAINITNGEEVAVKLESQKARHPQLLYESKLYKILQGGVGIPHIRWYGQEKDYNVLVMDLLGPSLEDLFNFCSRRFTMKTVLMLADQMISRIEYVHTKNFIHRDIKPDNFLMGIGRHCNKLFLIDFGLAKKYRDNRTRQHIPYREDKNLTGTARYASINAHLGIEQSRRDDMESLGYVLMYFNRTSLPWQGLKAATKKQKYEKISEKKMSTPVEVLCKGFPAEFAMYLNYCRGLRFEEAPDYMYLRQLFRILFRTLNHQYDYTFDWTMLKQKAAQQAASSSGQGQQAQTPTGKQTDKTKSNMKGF

[3] = target: Protein kinase C delta type (Homo sapiens) (UniProt Q05655); experiment: Inhibition of human truncated PKC delta expressed in baculovirus assessed as substrate phosphorylation using fluorescence-labelled peptides as substrate at 70 uM after 90 mins by microfluidic peptide phosphorylation assay
Chain of Protein kinase C delta type (Homo sapiens) (Q05655 whole entry, looked up, the tested form may be a part): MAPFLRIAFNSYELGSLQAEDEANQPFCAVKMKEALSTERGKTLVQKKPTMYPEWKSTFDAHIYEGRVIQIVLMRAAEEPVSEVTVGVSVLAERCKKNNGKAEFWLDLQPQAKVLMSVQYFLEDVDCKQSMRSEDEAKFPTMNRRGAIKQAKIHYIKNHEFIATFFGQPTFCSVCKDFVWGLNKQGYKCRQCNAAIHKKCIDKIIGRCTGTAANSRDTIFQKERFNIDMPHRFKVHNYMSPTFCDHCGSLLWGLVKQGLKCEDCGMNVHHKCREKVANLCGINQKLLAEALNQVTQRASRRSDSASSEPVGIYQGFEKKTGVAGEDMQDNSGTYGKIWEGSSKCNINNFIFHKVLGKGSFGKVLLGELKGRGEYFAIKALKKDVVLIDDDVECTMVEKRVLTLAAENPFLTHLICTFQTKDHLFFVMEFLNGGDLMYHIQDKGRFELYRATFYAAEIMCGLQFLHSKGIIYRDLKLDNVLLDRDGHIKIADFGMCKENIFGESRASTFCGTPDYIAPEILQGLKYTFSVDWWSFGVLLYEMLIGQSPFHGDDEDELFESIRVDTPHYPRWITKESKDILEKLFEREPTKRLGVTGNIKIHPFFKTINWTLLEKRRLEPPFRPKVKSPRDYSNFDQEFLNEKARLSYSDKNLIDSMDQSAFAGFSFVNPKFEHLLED

[4] = target: Calcium/calmodulin-dependent protein kinase type II subunit gamma (Homo sapiens) (UniProt Q13555); experiment: Inhibition of human CAMK2 gamma catalytic domain expressed in baculovirus assessed as substrate phosphorylation using fluorescence-labelled peptides as substrate at 70 uM after 90 mins by microfluidic peptide phosphorylation assay
Chain of Calcium/calmodulin-dependent protein kinase type II subunit gamma (Homo sapiens) (Q13555 whole entry, the tested form may be a part): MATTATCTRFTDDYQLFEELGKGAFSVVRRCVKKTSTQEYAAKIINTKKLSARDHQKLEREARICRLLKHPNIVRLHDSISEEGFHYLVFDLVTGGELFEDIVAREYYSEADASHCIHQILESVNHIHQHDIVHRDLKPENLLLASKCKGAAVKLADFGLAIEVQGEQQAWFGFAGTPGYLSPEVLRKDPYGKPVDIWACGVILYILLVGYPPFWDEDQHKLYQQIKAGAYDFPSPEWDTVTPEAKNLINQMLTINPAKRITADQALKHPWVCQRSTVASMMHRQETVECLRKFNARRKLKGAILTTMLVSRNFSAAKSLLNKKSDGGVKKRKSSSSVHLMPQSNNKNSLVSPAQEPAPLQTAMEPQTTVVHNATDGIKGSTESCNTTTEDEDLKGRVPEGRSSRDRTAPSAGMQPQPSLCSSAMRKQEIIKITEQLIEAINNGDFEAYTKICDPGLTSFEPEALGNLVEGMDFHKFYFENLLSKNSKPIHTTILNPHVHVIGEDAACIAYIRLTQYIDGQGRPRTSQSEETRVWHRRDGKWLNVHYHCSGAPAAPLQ

[5] = target: Mitogen-activated protein kinase 1 (Homo sapiens) (UniProt P28482); experiment: Inhibition of human full length ERK2 expressed in Escherichia coli cell assessed as substrate phosphorylation using fluorescence-labelled peptides as substrate at 70 uM after 90 mins by microfluidic peptide phosphorylation assay
Chain of Mitogen-activated protein kinase 1 (Homo sapiens) (P28482 whole entry): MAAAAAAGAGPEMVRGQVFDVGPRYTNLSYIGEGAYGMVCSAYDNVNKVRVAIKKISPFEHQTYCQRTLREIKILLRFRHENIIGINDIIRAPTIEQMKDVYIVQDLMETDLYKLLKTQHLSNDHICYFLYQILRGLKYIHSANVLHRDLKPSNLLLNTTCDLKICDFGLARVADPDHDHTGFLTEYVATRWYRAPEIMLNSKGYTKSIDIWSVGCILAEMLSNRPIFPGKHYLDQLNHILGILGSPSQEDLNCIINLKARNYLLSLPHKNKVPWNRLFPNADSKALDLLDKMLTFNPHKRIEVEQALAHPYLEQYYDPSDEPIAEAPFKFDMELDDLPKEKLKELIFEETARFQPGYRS

[6] = target: T2, Mitogen-activated protein kinase 13 (Homo sapiens) (UniProt O15264); experiment: Inhibition of human full length p38 delta expressed in Escherichia coli cell assessed as substrate phosphorylation using fluorescence-labelled peptides as substrate at 0.2 uM after 90 mins by microfluidic peptide phosphorylation assay
T2 sequence (whole entry): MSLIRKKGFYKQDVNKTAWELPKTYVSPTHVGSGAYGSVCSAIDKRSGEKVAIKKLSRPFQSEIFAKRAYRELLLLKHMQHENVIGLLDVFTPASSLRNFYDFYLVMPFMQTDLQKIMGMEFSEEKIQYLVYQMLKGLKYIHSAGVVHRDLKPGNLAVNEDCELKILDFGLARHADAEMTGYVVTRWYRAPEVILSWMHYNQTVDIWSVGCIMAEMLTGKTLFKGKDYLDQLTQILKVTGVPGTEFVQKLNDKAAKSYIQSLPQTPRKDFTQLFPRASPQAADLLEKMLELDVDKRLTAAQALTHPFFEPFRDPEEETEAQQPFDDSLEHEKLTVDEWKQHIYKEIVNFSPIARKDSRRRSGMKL

[7] = target: Casein kinase I isoform delta (Homo sapiens) (UniProt P48730); experiment: Inhibition of human CK1D catalytic domain expressed in Escherichia coli cell assessed as substrate phosphorylation using fluorescence-labelled peptides as substrate at 420 uM after 90 mins by microfluidic peptide phosphorylation assay
Chain of Casein kinase I isoform delta (Homo sapiens) (P48730 whole entry, looked up, the tested form may be a part, canonical isoform): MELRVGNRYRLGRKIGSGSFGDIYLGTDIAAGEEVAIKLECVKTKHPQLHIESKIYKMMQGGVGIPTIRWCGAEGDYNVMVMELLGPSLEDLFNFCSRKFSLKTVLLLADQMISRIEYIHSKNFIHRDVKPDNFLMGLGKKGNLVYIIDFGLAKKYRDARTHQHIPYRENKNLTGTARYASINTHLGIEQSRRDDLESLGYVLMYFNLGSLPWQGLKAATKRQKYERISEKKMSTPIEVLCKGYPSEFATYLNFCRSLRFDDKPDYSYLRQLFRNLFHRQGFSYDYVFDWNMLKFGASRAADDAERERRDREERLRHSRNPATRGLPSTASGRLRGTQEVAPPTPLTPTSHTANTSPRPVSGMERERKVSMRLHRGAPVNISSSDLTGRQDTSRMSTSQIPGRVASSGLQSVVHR

[8] = target: RAF proto-oncogene serine/threonine-protein kinase (Homo sapiens) (UniProt P04049); experiment: Inhibition of human truncated c-Raf expressed in baculovirus assessed as substrate phosphorylation using fluorescence-labelled peptides as substrate at 420 uM after 90 mins by microfluidic peptide phosphorylation assay
Chain of RAF proto-oncogene serine/threonine-protein kinase (Homo sapiens) (P04049 whole entry, the tested form may be a part): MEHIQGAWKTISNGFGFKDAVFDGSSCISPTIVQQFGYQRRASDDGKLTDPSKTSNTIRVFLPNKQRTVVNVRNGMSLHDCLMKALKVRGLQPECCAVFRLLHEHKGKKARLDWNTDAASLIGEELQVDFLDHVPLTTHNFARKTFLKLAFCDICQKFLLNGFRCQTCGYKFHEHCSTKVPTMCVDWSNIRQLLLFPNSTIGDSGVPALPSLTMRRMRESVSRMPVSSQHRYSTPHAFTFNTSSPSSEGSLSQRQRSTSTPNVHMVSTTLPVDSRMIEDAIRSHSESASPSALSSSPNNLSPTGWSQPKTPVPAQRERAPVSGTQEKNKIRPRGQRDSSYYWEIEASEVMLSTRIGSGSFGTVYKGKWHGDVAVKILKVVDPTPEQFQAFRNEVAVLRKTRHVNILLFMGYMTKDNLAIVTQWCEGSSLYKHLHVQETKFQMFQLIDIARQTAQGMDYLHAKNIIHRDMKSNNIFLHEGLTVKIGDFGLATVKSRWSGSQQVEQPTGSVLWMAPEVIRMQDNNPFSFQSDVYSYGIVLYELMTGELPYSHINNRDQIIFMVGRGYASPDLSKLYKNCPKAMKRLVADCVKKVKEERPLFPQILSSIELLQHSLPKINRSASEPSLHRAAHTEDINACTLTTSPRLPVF

[9] = target: Calcium/calmodulin-dependent protein kinase type II subunit beta (Homo sapiens) (UniProt Q13554); experiment: Inhibition of human CAMK2 beta catalytic domain expressed in baculovirus assessed as substrate phosphorylation using fluorescence-labelled peptides as substrate at 420 uM after 90 mins by microfluidic peptide phosphorylation assay
Chain of Calcium/calmodulin-dependent protein kinase type II subunit beta (Homo sapiens) (Q13554 whole entry, the tested form may be a part): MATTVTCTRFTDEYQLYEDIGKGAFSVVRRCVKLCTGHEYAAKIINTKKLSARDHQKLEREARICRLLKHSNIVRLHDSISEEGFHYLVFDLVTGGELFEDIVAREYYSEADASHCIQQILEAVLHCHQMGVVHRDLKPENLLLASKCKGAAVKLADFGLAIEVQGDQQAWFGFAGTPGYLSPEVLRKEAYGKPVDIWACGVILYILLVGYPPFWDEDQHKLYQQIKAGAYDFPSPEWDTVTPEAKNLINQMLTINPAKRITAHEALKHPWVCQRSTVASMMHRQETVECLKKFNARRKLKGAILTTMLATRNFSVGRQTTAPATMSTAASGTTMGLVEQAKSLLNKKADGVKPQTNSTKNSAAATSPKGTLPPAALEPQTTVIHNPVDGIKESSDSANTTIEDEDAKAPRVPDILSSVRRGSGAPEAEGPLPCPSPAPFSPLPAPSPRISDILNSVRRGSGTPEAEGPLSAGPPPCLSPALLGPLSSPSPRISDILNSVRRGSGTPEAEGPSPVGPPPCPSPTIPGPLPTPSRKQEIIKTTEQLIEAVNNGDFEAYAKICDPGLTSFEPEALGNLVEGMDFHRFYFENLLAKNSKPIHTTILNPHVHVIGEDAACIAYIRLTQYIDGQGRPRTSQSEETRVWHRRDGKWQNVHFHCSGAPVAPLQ

[10] = target: Protein kinase C theta type (Homo sapiens) (UniProt Q04759); experiment: Inhibition of human truncated PKC theta expressed in baculovirus assessed as substrate phosphorylation using fluorescence-labelled peptides as substrate at 95 uM after 90 mins by microfluidic peptide phosphorylation assay
[11] = target: Ribosomal protein S6 kinase alpha-4 (Homo sapiens) (UniProt O75676); experiment: Inhibition of human full length MSK2 expressed in baculovirus assessed as substrate phosphorylation using fluorescence-labelled peptides as substrate at 2 uM after 90 mins by microfluidic peptide phosphorylation assay
Chain of Ribosomal protein S6 kinase alpha-4 (Homo sapiens) (O75676 whole entry, looked up): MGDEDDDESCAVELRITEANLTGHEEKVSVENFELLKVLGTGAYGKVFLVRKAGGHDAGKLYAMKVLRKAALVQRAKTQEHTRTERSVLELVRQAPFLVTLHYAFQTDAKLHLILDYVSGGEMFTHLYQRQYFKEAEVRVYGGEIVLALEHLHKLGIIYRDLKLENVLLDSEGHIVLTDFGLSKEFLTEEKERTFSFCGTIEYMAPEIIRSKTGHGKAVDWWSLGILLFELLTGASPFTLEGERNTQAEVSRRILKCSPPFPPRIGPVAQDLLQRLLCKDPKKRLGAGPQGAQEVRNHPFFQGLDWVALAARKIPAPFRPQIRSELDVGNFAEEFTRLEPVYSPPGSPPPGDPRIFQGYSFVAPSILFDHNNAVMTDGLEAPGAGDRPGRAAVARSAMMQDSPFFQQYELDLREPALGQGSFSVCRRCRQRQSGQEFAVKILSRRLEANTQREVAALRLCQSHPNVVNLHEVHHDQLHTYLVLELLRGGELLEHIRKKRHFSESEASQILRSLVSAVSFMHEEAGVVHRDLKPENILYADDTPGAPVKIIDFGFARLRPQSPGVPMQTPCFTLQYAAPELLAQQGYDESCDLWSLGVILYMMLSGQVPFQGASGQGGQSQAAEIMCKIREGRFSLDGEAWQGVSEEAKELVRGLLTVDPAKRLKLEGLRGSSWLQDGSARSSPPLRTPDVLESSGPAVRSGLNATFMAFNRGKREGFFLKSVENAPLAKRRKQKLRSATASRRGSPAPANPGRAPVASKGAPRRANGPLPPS

[12] = target: T3, Serine/threonine-protein kinase Chk1 (Homo sapiens) (UniProt O14757); experiment: Inhibition of human full length CHK1 expressed in baculovirus assessed as substrate phosphorylation using fluorescence-labelled peptides as substrate at 8 uM after 90 mins by microfluidic peptide phosphorylation assay
T3 sequence (whole entry): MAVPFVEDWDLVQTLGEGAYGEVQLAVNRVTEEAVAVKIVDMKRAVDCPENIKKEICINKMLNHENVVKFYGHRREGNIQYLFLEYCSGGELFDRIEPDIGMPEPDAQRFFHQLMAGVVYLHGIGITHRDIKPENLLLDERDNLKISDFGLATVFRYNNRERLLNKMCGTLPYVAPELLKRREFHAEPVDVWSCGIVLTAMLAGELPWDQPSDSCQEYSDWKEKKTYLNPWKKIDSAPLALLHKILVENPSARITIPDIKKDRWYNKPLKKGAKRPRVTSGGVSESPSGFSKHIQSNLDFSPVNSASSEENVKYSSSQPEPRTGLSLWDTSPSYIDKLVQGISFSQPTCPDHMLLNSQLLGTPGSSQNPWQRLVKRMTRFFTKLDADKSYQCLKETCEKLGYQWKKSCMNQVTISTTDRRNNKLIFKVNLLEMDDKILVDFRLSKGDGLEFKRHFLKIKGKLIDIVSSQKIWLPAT

[13] = target: MAP kinase-activated protein kinase 3 (Homo sapiens) (UniProt Q16644); settings: 0.1 uM
Chain of MAP kinase-activated protein kinase 3 (Homo sapiens) (Q16644 whole entry, looked up): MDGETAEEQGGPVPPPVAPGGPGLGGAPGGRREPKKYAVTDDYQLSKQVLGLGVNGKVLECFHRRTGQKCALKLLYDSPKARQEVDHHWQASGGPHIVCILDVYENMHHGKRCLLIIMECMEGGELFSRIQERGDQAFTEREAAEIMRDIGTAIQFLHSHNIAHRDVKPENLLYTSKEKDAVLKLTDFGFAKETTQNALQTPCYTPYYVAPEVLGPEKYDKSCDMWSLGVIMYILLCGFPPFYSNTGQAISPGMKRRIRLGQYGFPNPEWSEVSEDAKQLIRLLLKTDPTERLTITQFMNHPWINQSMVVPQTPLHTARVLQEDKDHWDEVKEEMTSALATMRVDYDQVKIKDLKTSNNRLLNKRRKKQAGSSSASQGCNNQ
Description: Inhibition of human full length MAPKAPK3 expressed in Escherichia coli cell assessed as substrate phosphorylation using fluorescence-labelled peptides as substrate at 0.1 uM after 90 mins by microfluidic peptide phosphorylation assay

NC1(Cc2ccc(Cl)cc2)CCN(c2ncnc3[nH]ccc23)CC1
inhibition [1]: 0% | inhibition [2]: 1%

CNCc1ccc(-c2ncnc3[nH]cnc23)cc1
inhibition [3]: 60% | inhibition [4]: 16% | inhibition [5]: 29%

Clc1ccc(C2(c3ccc(-c4ncnc5[nH]cnc45)cc3)CCNCC2)cc1
inhibition [6]: 11%

c1nc(N2CCOCC2)c2nc[nH]c2n1
inhibition [7]: 81.5% | inhibition [8]: 52% | inhibition [9]: 20.5%

NCCc1ccc(-c2ncnc3[nH]cnc23)cc1
inhibition [10]: 72%

NC1CCN(c2ncnc3[nH]ccc23)CC1
inhibition [11]: 15%

NCC1CCN(c2ncnc3[nH]ccc23)CC1
inhibition [12]: 0%

C[C@H](CN(C)C)Oc1nc(Nc2cc3cccc(Cl)c3cn2)cnc1C#N
inhibition [13]: 0%
